# US7022725B2, “Isoxazole derivatives” (Takeda Pharmaceutical Company Limited, priority 2000, dated 2006)
row,Structure (SMILES),melting point
1,CCOP(=O)(Cc1ccc(NC(=O)CCc2cnoc2-c2ccc(F)cc2)cc1)OCC,134 to 135 °C
2,CCOP(=O)(O)Cc1ccc(NC(=O)CCc2cnoc2-c2ccccc2)cc1,80 to 82 °C
3,"O=C(O)CCc1conc1-c1ccc(Cl)cc1 [Example 5, 3-[3-(4-chlorophenyl)-4-isoxazolyl]propionic acid]",149 to 150 °C
4,"NC(=O)CCc1conc1-c1ccc(Cl)cc1 [Example 18, 3-[3-(4-chlorophenyl)-4-isoxazolyl]propionamide]",158 to 159 °C
5,"NC(=O)CCc1cnoc1-c1ccccc1 [Example 22, 3-(5-phenyl-4-isoxazolyl)propionamide]",151 to 152 °C
6,"CCNC(=O)CCc1cnoc1-c1ccccc1 [Example 23, N-ethyl-3-(5-phenyl-4-isoxazolyl)propionamide]",75 to 76 °C
7,"O=C(O)/C=C/c1cnoc1-c1ccccc1 [Example 24, (E)-3-(5-phenyl-4-isoxazolyl)propenoic acid]",197 to 199 °C
8,"NC(=O)/C=C/c1cnoc1-c1ccccc1 [Example 25, (E)-3-(5-phenyl-4-isoxazolyl)propenamide]",194 to 196 °C
9,"CCNC(=O)/C=C/c1cnoc1-c1ccccc1 [Example 27, (E)-N-ethyl-3-(5-phenyl-4-isoxazolyl)propenamide]",156 to 157 °C
10,"Cc1noc(-c2ccccc2)c1CCC(N)=O [Example 28, 3-(3-methyl-5-phenyl-4-isoxazolyl)propionamide]",149 to 151 °C
11,"O=C(O)CCc1conc1-c1ccc(-c2ccccc2)cc1 [Example 57, 3-[3-(4-phenylphenyl)-4-isoxazolyl]propionic acid]",169 to 170 °C
12,"COC(=O)CCc1cnoc1-c1ccc(C(F)(F)F)cc1 [Example 60, methyl 3-[5-(4-trifluoromethylphenyl)-4-isoxazolyl]propionate]",68 to 69 °C
13,"OCCCc1cnoc1-c1ccc(C(F)(F)F)cc1 [Example 62, 3-[5-(4-trifluoromethylphenyl)-4-isoxazolyl]propan-1-ol]",85 to 86 °C
14,"COC(=O)CCc1cnoc1-c1ccc(Cl)s1 [Example 65, methyl 3-[5-(5-chloro-2-thienyl)-4-isoxazolyl]propionate]",34 to 35 °C
15,"Cc1cc(-c2oncc2CCCO)ccc1Cl [Example 97, 3-[5-(4-chloro-3-methylphenyl)-4-isoxazolyl]propan-1-ol]",50 to 51 °C
16,"CSc1ccc(-c2oncc2CCCO)cc1 [Example 105, 3-[5-(4-methylthiophenyl)-4-isoxazolyl]propan-1-ol]",54 to 55 °C
17,"CS(=O)(=O)c1ccc(-c2oncc2CCCO)cc1 [Example 106, 3-[5-(4-methylsulfonylphenyl)-4-isoxazolyl]propan-1-ol]",125 to 126 °C

row,Structure (SMILES),melting point
1,"C[S+]([O-])c1ccc(-c2oncc2CCCO)cc1 (stereo not drawn) [Example 107, 3-[5-(4-methylsulfinylphenyl)-4-isoxazolyl]propan-1-ol]",73 to 74 °C
2,"O=C(O)CCc1conc1-c1ccc(Cl)c(Cl)c1 [Example 111, 3-[3-(3,4-dichlorophenyl)-4-isoxazolyl]propionic acid]",181 to 182 °C
3,"O=C(O)CCc1conc1-c1ccc(F)c(Cl)c1 [Example 114, 3-[3-(3-chloro-4-fluorophenyl)-4-isoxazolyl]propionic acid]",140 to 141 °C
4,"O=C(O)CCc1conc1-c1ccc(Cl)c(F)c1 [Example 117, 3-[3-(4-chloro-3-fluorophenyl)-4-isoxazolyl]propionic acid]",148 to 149 °C
5,"COC(=O)CCc1cnoc1-c1cc(Cl)c(Cl)s1 [Example 124, methyl 3-[5-(4,5-dichloro-2-thienyl)-4-isoxazolyl]propionate]",49 to 50 °C
6,"O=C(O)CCc1cnoc1-c1ccc(-c2ccccc2)cc1 [Example 131, 3-[5-(4-phenylphenyl)-4-isoxazolyl]propionic acid]",94 to 95 °C
7,"Cc1noc(-c2ccccc2)c1/C=C/C(=O)O [Example 136, (E)-3-(3-methyl-5-phenyl-4-isoxazolyl)propenoic acid]",173 to 174 °C
8,"O=C(O)CCc1conc1-c1ccc(C(F)(F)F)cc1 [Example 140, 3-[3-(4-trifluoromethylphenyl)-4-isoxazolyl]propionic acid]",173 to 174 °C
9,"Cc1onc(-c2ccc(Cl)cc2)c1CCC(=O)O [Example 141, 3-[3-(4-chlorophenyl)-5-methyl-4-isoxazolyl]propionic acid]",187 to 188 °C
10,"CCc1onc(-c2ccc(Cl)cc2)c1CCC(=O)O [Example 142, 3-[3-(4-chlorophenyl)-5-ethyl-4-isoxazolyl]propionic acid]",164 to 165 °C
11,"O=C(O)CCc1c(-c2ccccc2)noc1O [Example 143, 3-[5-hydroxy-3-phenyl-4-isoxazolyl]propionic acid]",183 to 184 °C
12,"Cc1onc(-c2ccc(C(F)(F)F)cc2)c1CCC(=O)O [Example 144, 3-[5-methyl-3-(4-trifluoromethylphenyl)-4-isoxazolyl]propionic acid]",138 to 139 °C
13,"Cc1onc(-c2cccc(C(F)(F)F)c2)c1CCC(=O)O [Example 145, 3-[5-methyl-3-(3-trifluoromethylphenyl)-4-isoxazolyl]propionic acid]",63 to 64 °C
14,"O=C(O)CCc1c(-c2ccccc2)noc1-c1ccccc1 [Example 146, 3-[3,5-diphenyl-4-isoxazolyl]propionic acid]",152 to 153 °C
15,"Cc1onc(-c2ccccc2Cl)c1CCC(=O)O [Example 147, 3-[3-(2-chlorophenyl)-5-methyl-4-isoxazolyl]propionic acid]",79 to 81 °C
16,"O=C(CCc1cnoc1-c1ccccc1)Nc1ccc(CP(=O)(O)O)cc1 [Example 413 (byproduct), 3-(5-Phenyl-4-isoxazolyl)-N-[4-(phosphonomethyl)phenyl]propionamide]",162 to 164 °C

# Further lines, results first:
row,melting point,Structure (SMILES)
1,116 to 118 °C,"O=C(O)CCc1cnoc1-c1ccc(OC(F)(F)F)cc1 [Example 1, 3-[5-(4-trifluoromethoxyphenyl)-4-isoxazolyl]propionic acid]"
2,177 to 180 °C,"O=C(O)CCc1cnoc1-c1ccc(Cl)c(Br)c1 [Example 6, 3-[5-(3-bromo-4-chlorophenyl)-4-isoxazolyl]propionic acid]"
3,90 to 91 °C,"O=C(O)CCc1cnoc1-c1ccccc1 [Example 7, 3-(5-phenyl-4-isoxazolyl)propionic acid]"
4,171 to 172 °C,"O=C(O)CCc1cnoc1-c1ccc(C(F)(F)F)cc1 [Example 10, 3-[5-(4-trifluoromethylphenyl)-4-isoxazolyl]propionic acid]"
5,126 to 127 °C,"O=C(O)CCc1cnoc1-c1ccc(F)cc1 [Example 11, 3-[5-(4-fluorophenyl)-4-isoxazolyl]propionic acid]"
6,121 to 122 °C,"Cc1ccc(-c2oncc2CCC(=O)O)cc1 [Example 12, 3-[5-(4-methylphenyl)-4-isoxazolyl]propionic acid]"
7,101 to 102 °C,"COc1ccc(-c2oncc2CCC(=O)O)cc1 [Example 13, 3-[5-(4-methoxyphenyl)-4-isoxazolyl]propionic acid]"
8,125 to 126 °C,"O=C(O)CCc1cnoc1-c1ccc(F)cc1F [Example 59, 3-[5-(2,4-difluorophenyl)-4-isoxazolyl]propionic acid]"
9,40 to 41 °C,"COC(=O)CCc1cnoc1-c1ccc(F)cc1F [Example 61, methyl 3-[5-(2,4-difluorophenyl)-4-isoxazolyl]propionate]"
10,106 to 107 °C,"O=C(O)CCc1cnoc1-c1ccc(Cl)cc1Cl [Example 69, 3-[5-(2,4-dichlorophenyl)-4-isoxazolyl]propionic acid]"
11,143 to 144 °C,"O=C(O)CCc1cnoc1-c1cc(Cl)cc(Cl)c1 [Example 74, 3-[5-(3,5-dichlorophenyl)-4-isoxazolyl]propionic acid]"
12,204 to 205 °C,"O=C(O)CCc1cnoc1-c1ccc([N+](=O)[O-])cc1 [Example 80, 3-[5-(4-nitrophenyl)-4-isoxazolyl]propionic acid]"
13,110 to 111 °C,"O=C(O)CCc1cnoc1-c1cccc(Cl)c1 [Example 86, 3-[5-(3-chlorophenyl)-4-isoxazolyl]propionic acid]"
14,150 to 151 °C,"O=C(O)CCc1cnoc1-c1ccc2c(c1)OCO2 [Example 89, 3-[5-(1,3-benzodioxol-5-yl)-4-isoxazolyl]propionic acid]"
15,158 to 159 °C,"Cc1cc(-c2oncc2CCC(=O)O)ccc1Cl [Example 95, 3-[5-(4-chloro-3-methylphenyl)-4-isoxazolyl]propionic acid]"
16,103 to 104 °C,"O=C(O)CCc1cnoc1-c1cc(Cl)ccc1Cl [Example 98, 3-[5-(2,5-dichlorophenyl)-4-isoxazolyl]propionic acid]"
17,169 to 170 °C,"COc1ccc(-c2oncc2CCC(=O)O)cc1OC [Example 100, 3-[5-(3,4-dimethoxyphenyl)-4-isoxazolyl]propionic acid]"
18,124 to 125 °C,"CSc1ccc(-c2oncc2CCC(=O)O)cc1 [Example 103, 3-[5-(4-methylthiophenyl)-4-isoxazolyl]propionic acid]"
19,139 to 140 °C,"O=C(O)CCc1cnoc1-c1ccc(Cl)c(F)c1 [Example 108, 3-[5-(4-chloro-3-fluorophenyl)-4-isoxazolyl]propionic acid]"
20,151 to 152 °C,"O=C(O)CCc1conc1-c1ccc(F)c(Br)c1 [Example 125, 3-[3-(3-bromo-4-fluorophenyl)-4-isoxazolyl]propionic acid]"
21,136 to 137 °C,"O=C(O)CCc1cnoc1-c1ccc(F)c(Br)c1 [Example 128, 3-[5-(3-bromo-4-fluorophenyl)-4-isoxazolyl]propionic acid]"
